Experimental data from article PMC8847695 (Frontiers in Chemistry, 2022).

Tests used:
Assay type in all cases: binding
DOT1L (1-416) = biological target: T1, DOT1L (1-416) (Homo sapiens, UniProt Q8TEK3); experiment: STD-NMR fragment screening, DOT1L; conditions: for DOT1L (STD-NMR hit flag): 1 = hit, 0 = no hit
T1 construct: made in house; host or cells: E. coli BL21 (DE3) pLysS
Procedure: (§1) All fragments were stored at −20°C as solids in argon flushed glass bottles. For NMR screening, fragments were weighed and dissolved in DMSO-d6 to a stock concentration of 300 mM. Mother plates were prepared with a 100 mM concentration. From these plates, daughter plates were prepared with the fragments mixed in the plates to a concentration of 50 mM for each fragment. Daughter plates were opened a maximum of eight times. The plates were argon flushed and sealed with a HT121TS (HTA) and Foil Heat Seal (Biozym).
(§2) For long time measurements, like the protein ^1H NMR spectrum, the buffer exchange was performed twice to reduce residual buffer peaks. All experiments were performed on a Bruker Avance III HDX 700 instrument, equipped with a 5 mm Prodigy TCI cryo-probehead. For every protein, a standard ^1H NMR experiment with 1 k scans and water suppression through presaturation was performed. […] The on-resonance frequency, which was determined from the ^1H NMR spectra of the protein, was between 0.5 and 0.6 ppm; 40 ppm was used as the off-resonance frequency. For an interleaved acquisition of the on- and off-resonance, a pseudo-2D scheme was applied. The saturation was done by Gaussian pulses with a length of 50 ms and 60 dB of attenuation, with an interpulse delay of 1 ms leading to an excitation bandwidth of about 42 Hz. The screening was done with 16 scans of on- and off-resonance scans each, with a 3 s saturation time. The samples contained final concentrations of 20 µM protein, 10% (^V/V) DMSO-d6, and 1 mM of each of the two fragments. A ^1H-NMR experiment was performed for each compound to act as a reference spectrum in the STD experiments. All NMR experiments were carried out at 25°C.
(§3) Fifteen of these compounds contain the same halogen twice. No compound bears mixtures of different halogen atoms. Four proteins (AAK1, CAMK1G, IDO1, and DOT1L) were screened against this HEFLib using STD-NMR. A fragment was considered a hit if the peak intensity in the difference spectrum was three times higher than the local background noise. […] Chemical compatibility and peak complementarity were assured for these mixtures. Samples containing more than two fragments were avoided to minimize the possible target competition and to decrease the risk of fragment interactions. […] The ^1H reference NMR spectrum of the mixture is shown in red for comparison. […] As fragment mixtures can lead to competitive effects between their fragments, it is not advised to use the quantification of peak mixtures for hit ranking.

CAMK1G (1-320) = biological target: T2, CAMK1G (1-320) (Homo sapiens, UniProt Q96NX5); experiment: STD-NMR fragment screening, CAMK1G; conditions: for CAMK1G (STD-NMR hit flag): 1 = hit, 0 = no hit
T2 construct: made in house; host or cells: E. coli BL21 (DE3) pLysS
Procedure: as §1, §2, §3

AAK1 (121-471) = AAK1 (121-471) (Homo sapiens, UniProt Q2M2I8); experiment: STD-NMR fragment screening, AAK1; conditions: for AAK1 (STD-NMR hit flag): 1 = hit, 0 = no hit
Procedure: as §1, §2, §3

IDO1 (1-435) = biological target: T3, IDO1 (1-435) (Homo sapiens, UniProt P14902); experiment: STD-NMR fragment screening, IDO1; conditions: for IDO1 (STD-NMR hit flag): 1 = hit, 0 = no hit
T3 construct: His-tag of pET15b with TEV site (thrombin site replaced) (cleaved yes); made in house; host or cells: E. coli Rosetta 2 (DE3) pLysS
Procedure: as §1, §2, §3

[1] = 1 mM fragment, 20 µM protein, hit if peak in difference spectrum three times higher than local noise

T3 sequence (P14902 whole entry, the tested form may be a part): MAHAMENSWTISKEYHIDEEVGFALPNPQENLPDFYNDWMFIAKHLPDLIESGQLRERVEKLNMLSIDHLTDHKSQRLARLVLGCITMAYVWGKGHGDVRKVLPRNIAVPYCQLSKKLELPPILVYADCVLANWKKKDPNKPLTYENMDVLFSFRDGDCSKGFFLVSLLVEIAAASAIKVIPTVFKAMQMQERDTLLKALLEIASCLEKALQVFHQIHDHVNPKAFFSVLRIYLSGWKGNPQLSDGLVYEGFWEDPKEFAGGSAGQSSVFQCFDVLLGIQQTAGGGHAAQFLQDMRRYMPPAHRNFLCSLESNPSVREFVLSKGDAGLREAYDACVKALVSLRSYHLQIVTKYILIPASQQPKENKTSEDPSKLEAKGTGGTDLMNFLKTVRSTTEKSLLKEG
Chain of AAK1 (121-471) (Q2M2I8 46-315 limits assumed): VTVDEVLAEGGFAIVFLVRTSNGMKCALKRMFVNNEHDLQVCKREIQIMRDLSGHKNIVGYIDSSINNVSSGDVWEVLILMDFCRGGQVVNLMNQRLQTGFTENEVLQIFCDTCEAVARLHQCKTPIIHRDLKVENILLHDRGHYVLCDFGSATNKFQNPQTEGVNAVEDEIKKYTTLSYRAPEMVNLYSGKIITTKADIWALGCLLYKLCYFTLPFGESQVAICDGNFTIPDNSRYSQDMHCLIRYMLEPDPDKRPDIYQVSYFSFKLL
T1 sequence (Q8TEK3 1-416): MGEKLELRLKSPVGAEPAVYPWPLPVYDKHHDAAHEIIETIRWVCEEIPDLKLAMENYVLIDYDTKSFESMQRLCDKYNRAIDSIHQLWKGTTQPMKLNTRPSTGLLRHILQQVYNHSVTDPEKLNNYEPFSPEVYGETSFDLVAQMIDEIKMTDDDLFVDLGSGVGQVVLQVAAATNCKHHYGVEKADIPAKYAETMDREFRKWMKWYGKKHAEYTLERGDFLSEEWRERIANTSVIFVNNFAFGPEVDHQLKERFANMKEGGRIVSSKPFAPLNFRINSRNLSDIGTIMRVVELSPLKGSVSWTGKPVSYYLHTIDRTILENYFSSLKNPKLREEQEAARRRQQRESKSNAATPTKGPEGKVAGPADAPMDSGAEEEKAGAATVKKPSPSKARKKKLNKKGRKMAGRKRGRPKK
T2 sequence (Q96NX5 1-320): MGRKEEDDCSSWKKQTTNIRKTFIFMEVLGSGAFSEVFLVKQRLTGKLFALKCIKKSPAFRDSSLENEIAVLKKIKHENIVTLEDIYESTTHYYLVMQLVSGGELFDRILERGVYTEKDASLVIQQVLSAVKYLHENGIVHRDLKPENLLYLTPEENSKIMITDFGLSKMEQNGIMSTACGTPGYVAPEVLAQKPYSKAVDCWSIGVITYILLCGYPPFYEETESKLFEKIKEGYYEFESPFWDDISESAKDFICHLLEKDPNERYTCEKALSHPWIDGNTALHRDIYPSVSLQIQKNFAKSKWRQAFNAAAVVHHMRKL

| SMILES | DOT1L (STD-NMR hit flag) (DOT1L (1-416)) | CAMK1G (STD-NMR hit flag) (CAMK1G (1-320)) | AAK1 (STD-NMR hit flag) (AAK1 (121-471)) | IDO1 (STD-NMR hit flag) (IDO1 (1-435)) | STD-NMR hit (DOT1L (1-416); [1]) | STD-NMR hit (CAMK1G (1-320); [1]) | STD-NMR hit (AAK1 (121-471); [1]) | STD-NMR hit (IDO1 (1-435); [1]) |
| --- | --- | --- | --- | --- | --- | --- | --- | --- |
| Clc1cscn1 [Fragment B02290477] | 0 | 0 | 0 | 0 | – | – | – | – |
| NC(CCO)c1ccc(Cl)cc1Cl (centres unmarked) [Fragment B02289594] | 0 | 0 | 0 | 0 | – | – | – | – |
| O=C1CCS(=O)(=O)c2ccc(Cl)cc21 [Fragment B02291253] | 0 | 1 | 0 | 0 | – | – | – | – |
| COc1ncc(Cl)cc1C(=O)O [Fragment B02297429] | 0 | 0 | 0 | 1 | – | – | – | – |
| COc1cc(OC)nc(Cl)n1 [Fragment B02291246] | 0 | 0 | 1 | 1 | – | – | – | – |
| CN(C)S(=O)(=O)n1nccc1Br [Fragment B02290660] | 1 | 0 | 1 | 0 | – | – | – | – |
| O=C(O)c1ccc(Cl)o1 [Fragment B02290466] | 0 | 0 | 0 | 0 | – | – | – | – |
| CN(N)c1ncc(C(F)(F)F)cc1Cl [Fragment B02290089] | 0 | 0 | 0 | 0 | – | – | – | – |
| Cn1cc(Br)c(N)n1 [Fragment B02297415] | 0 | 0 | 0 | 0 | – | – | – | – |
| OB(O)c1ccncc1Br [Fragment B02297399] | 0 | 0 | 0 | 0 | – | – | – | – |
| Nc1ccc2[nH]cnc2c1Br [Fragment B02297409] | 0 | 0 | 1 | 0 | – | – | – | – |
| NC(=O)c1cc2c(nc1Cl)CCC2 [Fragment B02291222] | 0 | 0 | 0 | 0 | – | – | – | – |
| CNc1cc(Cl)c2c(c1)OCO2 [Fragment B02294481] | 0 | 0 | 0 | 0 | – | – | – | – |
| Nc1ccc(C(=O)O)c(Cl)c1 [Fragment B02291259] | 0 | 0 | 0 | 0 | – | – | – | – |
| O=c1cc(O)c(Cl)c[nH]1 [Fragment B02297427] | 0 | 0 | 0 | 1 | – | – | – | – |
| Cc1nn(CCO)c(N)c1I [Fragment B02291250] | 0 | 1 | 0 | 0 | – | – | – | – |
| CC(C(=O)O)n1cc(Br)cn1 (centres unmarked) [Fragment B02290114] | 0 | 0 | 0 | 0 | – | – | – | – |
| O=C(O)c1csc(Cl)n1 [Fragment B02291228] | 0 | 0 | 0 | 0 | – | – | – | – |
| Nc1ncc(Br)cc1CO [Fragment B02290475] | 0 | 1 | 1 | 0 | – | – | – | – |
| CC(Cn1cc(Cl)cn1)C(=O)O (centres unmarked) [Fragment B02290481] | 0 | 0 | 0 | 0 | – | – | – | – |
| O=c1[nH]cc(Cl)cc1[N+](=O)[O-] [Fragment B02290460] | 0 | 1 | 0 | 0 | – | – | – | – |

| SMILES | DOT1L (STD-NMR hit flag) (DOT1L (1-416)) | CAMK1G (STD-NMR hit flag) (CAMK1G (1-320)) | AAK1 (STD-NMR hit flag) (AAK1 (121-471)) | IDO1 (STD-NMR hit flag) (IDO1 (1-435)) | STD-NMR hit (DOT1L (1-416); [1]) | STD-NMR hit (CAMK1G (1-320); [1]) | STD-NMR hit (AAK1 (121-471); [1]) | STD-NMR hit (IDO1 (1-435); [1]) |
| --- | --- | --- | --- | --- | --- | --- | --- | --- |
| O=S(=O)(CCO)c1n[nH]c(Cl)n1 [Fragment B02290402] | 0 | 0 | 0 | 0 | – | – | – | – |
| Cn1c2nc(Cl)nc-2c(O)n(C)c1=O [Fragment B02291216] | 0 | 1 | 1 | 1 | – | – | – | – |
| CC(=O)c1c[nH]c2ncnc(Cl)c12 [Fragment B02290661] | 0 | 1 | 1 | 1 | – | – | – | – |
| Cc1[nH]c(=O)[nH]c(=O)c1I [Fragment B02297420] | 1 | 0 | 1 | 1 | – | – | – | – |
| Cc1ccc(C(=O)O)c(Cl)n1 [Fragment B02297428] | 0 | 0 | 0 | 0 | – | – | – | – |
| Nc1ncnc(Cl)c1Cl [Fragment B02289621] | 0 | 1 | 1 | 0 | – | – | – | – |
| Cn1c(Cl)c(C#N)c(=O)n(C)c1=O [Fragment 1234] | – | – | – | – | pan-target hit | pan-target hit | pan-target hit | pan-target hit |
| Cc1nc(N)nc(Cl)c1Cl [Fragment B02291102] | 0 | 1 | 1 | 1 | – | – | – | – |
| Cn1nc(Br)nc1NN [Fragment B02290120] | 1 | 1 | 0 | 0 | – | – | – | – |
| O=C(O)c1cnccc1Br [Fragment B02297403] | 0 | 0 | 0 | 0 | – | – | – | – |
| O=C(O)c1ncccc1Br [Fragment B02289614] | 0 | 0 | 0 | 0 | – | – | – | – |
| Cn1c2nc(Br)nc-2c(O)n(C)c1=O [Fragment B02291266] | 0 | 1 | 1 | 1 | – | – | – | – |
| Oc1cccc(O)c1Br [Fragment B02297401] | 0 | 0 | 1 | 0 | – | – | – | – |
| O=C(O)C(=O)Nc1ccc(Cl)cn1 [Fragment B02290408] | 0 | 0 | 0 | 0 | – | – | – | – |
| Fc1cc(C2CNCCN2)c(Cl)cc1Cl (centres unmarked) [Fragment B02297397] | 0 | 0 | 0 | 0 | – | – | – | – |
| Brc1csc(CN2CCNCC2)c1 [Fragment B02290122] | 0 | 0 | 0 | 0 | – | – | – | – |
| NCc1cc(Br)no1 [Fragment B02289609] | 0 | 0 | 0 | 0 | – | – | – | – |
| CC(C)c1nsc(Cl)n1 [Fragment B02291237] | 0 | 0 | 0 | 0 | – | – | – | – |
| Cn1ccc(Br)n1 [Fragment B02289620] | 0 | 0 | 0 | 1 | – | – | – | – |
| Fc1cnccc1I [Fragment B02290473] | 0 | 1 | 1 | 0 | – | – | – | – |
